# Measured values: patent US12458621B1, “Application of genipin beta-methyl derivative gen-17 in preparation of drug for prevention and treatment of acute severe pneumonia” (KUNMING MEDICAL UNIVERSITY, priority 2024, dated 2025)
# How the values were obtained:
# Type in all cases: in vivo, Kunming mice
# IKKα/β = IKKα/β mRNA in lung tissue by qRT-PCR; conditions: Gen-17 (12.5, 25, 50 mg/kg gavage) compared with LPS group (P<0.001)
# Description: (§1) A total of 144 SPF-grade healthy Kunming mice, aged 5-7 weeks and weighing 18-22 g, are weighed and randomly allocated into six experimental groups: control group (NS), model group (LPS), dexamethasone group (DEX, […] per kilogram abbreviated as mg/kg), genipin beta-methyl derivative low-dose group (12.5 mg/kg), genipin beta-methyl derivative medium-dose group (25 mg/kg), and genipin beta-methyl derivative high-dose group (50 mg/kg), 24 animals per group, in which 12 animals are used to take lung tissue for the detection of other indicators, and another 12 animals are used to collect BALF. […]
# (§2) Samples are collected 24 hours after the animal model is established. […] Lung tissues are collected and the whole lung wet weight is measured. […] After tidying, the lungs are photographed, excess tissues such as the trachea are cleared away, and the wet weight of the whole lung is measured to calculate the lung index. • (3) The upper lobe of the left lung is fixed in 4% neutral paraformaldehyde, fixed for 24 hours, paraffin-embedded and sectioned for HE staining. • (4) The remaining lung tissues are put into centrifugal tubes separately, quickly frozen in liquid nitrogen, and then stored at −80° C. after the experiment, which is used for the detection of MDA, SOD, western blotting (WB) and reverse transcription polymerase chain reaction (RT-PCR). […]
# LPS-induced ALI mice [1] = test: HE staining histopathology and alveolitis score of lung tissue; conditions: for pathological scores of alveolitis: compared with DEX group (P<0.05)
# Description: (§3) The dosage is converted according to the weight of the mice, and the gavage volume is 20 milliliters per kilogram (mL/kg), and the gavage is continued for 3 days. One hour after the gavage on the third day, the ALI model is established by tracheal instillation of LPS solution. […] After the mice are awake, they are raised as usual. 2.3 Treatment of Experimental Animals and Collection of Lung Tissue Specimens
# Samples are collected 24 hours after the animal model is established. The mice are weighed and 12 mice in each group are sacrificed. Lung tissues are collected and the whole lung wet weight is measured. The lung tissues are packaged for hematoxylin and eosin (HE) staining, MDA and SOD content determination, gene and protein detection. The specific experimental procedures are as follows. • (1) 12 mice in each group are weighed and their necks are dislocated and sacrificed. • (2) The mice are fixed. The abdomen is wiped with 75% alcohol. The thoracic cavity is then opened, and the lung tissue is removed. After tidying, the lungs are photographed, excess tissues such as the trachea are cleared away, and the wet weight of the whole lung is measured to calculate the lung index. • (3) The upper lobe of the left lung is fixed in 4% neutral paraformaldehyde, fixed for 24 hours, paraffin-embedded and sectioned for HE staining. • (4) The remaining lung tissues are put into centrifugal tubes separately, quickly frozen in liquid nitrogen, and then stored at −80° C. after the experiment, which is used for the detection of MDA, SOD, western blotting (WB) and reverse transcription polymerase chain reaction (RT-PCR). 2.4 BALF Collection and Processing
# LPS-induced ALI mice [2] = test: Total protein concentration in BALF by BCA; conditions: compared with LPS group (P<0.05)
# Description: (§4) A total of 144 SPF-grade healthy Kunming mice, aged 5-7 weeks and weighing 18-22 g, are weighed and randomly allocated into six experimental groups: control group (NS), model group (LPS), dexamethasone group (DEX, […] per kilogram abbreviated as mg/kg), genipin beta-methyl derivative low-dose group (12.5 mg/kg), genipin beta-methyl derivative medium-dose group (25 mg/kg), and genipin beta-methyl derivative high-dose group (50 mg/kg), 24 animals per group, in which 12 animals are used to take lung tissue for the detection of other indicators, and another 12 animals are used to collect BALF.
# All mice are gavaged with a same volume of 0.9% normal saline once a day in the NS group and the LPS group, DEX solution (0.39 mg/kg) is gavaged once a day in the DEX group, low-dose Gen-17 solution (12.5 mg/kg) is gavaged once a day in the medium-dose Gen-17 group, medium-dose Gen-17 solution (25 mg/kg) is gavaged once a day in the high-dose Gen-17 group, and high-dose Gen-17 solution (50 mg/kg) is gavaged once a day in the high-dose Gen-17 group. The dosage is converted according to the weight of the mice, and the gavage volume is 20 milliliters per kilogram (mL/kg), and the gavage is continued for 3 days. One hour after the gavage on the third day, the ALI model is established by tracheal instillation of LPS solution. The specific experimental procedures are as follows. • (1) Before the operation, the mice are anesthetized by intraperitoneal injection of 1% sodium pentobarbital (30 mg/kg) according to their body weight. • (2) Limbs of anesthetized mice are fixed with rubber bands, teeth are wired with thin threads, and neck skin is disinfected with 75% alcohol. • (3) A subcutaneous tissue is separated along a longitudinal incision in a middle of the mouse neck until a cartilage ring appeared in an exposed trachea. • (4) A microinjector is inserted into the trachea in parallel towards a proximal end for about 1 centimeter (cm). […]
# LPS-induced ALI mice [3] = test: Lung index (lung wet weight/body weight), LPS-induced ALI mice
# Description: as §4
# All mice are gavaged with a same volume of 0.9% normal saline once a day in the NS group and the LPS group, DEX solution (0.39 mg/kg) is gavaged once a day in the DEX group, low-dose Gen-17 solution (12.5 mg/kg) is gavaged once a day in the medium-dose Gen-17 group, medium-dose Gen-17 solution (25 mg/kg) is gavaged once a day in the high-dose Gen-17 group, and high-dose Gen-17 solution (50 mg/kg) is gavaged once a day in the high-dose Gen-17 group. The dosage is converted according to the weight of the mice, and the gavage volume is 20 milliliters per kilogram (mL/kg), and the gavage is continued for 3 days. One hour after the gavage on the third day, the ALI model is established by tracheal instillation of LPS solution. The specific experimental procedures are as follows. • (1) Before the operation, the mice are anesthetized by intraperitoneal injection of 1% sodium pentobarbital (30 mg/kg) according to their body weight. • (2) Limbs of anesthetized mice are fixed with rubber bands, teeth are wired with thin threads, and neck skin is disinfected with 75% alcohol. • (3) A subcutaneous tissue is separated along a longitudinal incision in a middle of the mouse neck until a cartilage ring appeared in an exposed trachea. • (4) A microinjector is inserted into the trachea in parallel towards a proximal end for about 1 centimeter (cm). Sterile NS is slowly dripped into the trachea of the control group, and LPS is dripped into the trachea of the other groups. • (5) After pulling out the microinjector, the mice are upright immediately, rotated and shaken evenly for 2 minutes (min), then the neck wound is sutured, and the state of the mice is observed. After the mice are awake, they are raised as usual. 2.3 Treatment of Experimental Animals and Collection of Lung Tissue Specimens
# Samples are collected 24 hours after the animal model is established. The mice are weighed and 12 mice in each group are sacrificed. Lung tissues are collected and the whole lung wet weight is measured. The lung tissues are packaged for hematoxylin and eosin (HE) staining, MDA and SOD content determination, gene and protein detection. […] After tidying, the lungs are photographed, excess tissues such as the trachea are cleared away, and the wet weight of the whole lung is measured to calculate the lung index. • (3) The upper lobe of the left lung is fixed in 4% neutral paraformaldehyde, fixed for 24 hours, paraffin-embedded and sectioned for HE staining. • (4) The remaining lung tissues are put into centrifugal tubes separately, quickly frozen in liquid nitrogen, and then stored at −80° C. after the experiment, which is used for the detection of MDA, SOD, western blotting (WB) and reverse transcription polymerase chain reaction (RT-PCR). […]
# HO-1 = HO-1 gene expression in lung tissue by qRT-PCR
# Description: as §1, §2
# Nrf2 = Nrf2 protein in lung tissue by WB
# Description: as §3
# Samples are collected 24 hours after the animal model is established. The mice are weighed and 12 mice in each group are sacrificed. Lung tissues are collected and the whole lung wet weight is measured. […] After tidying, the lungs are photographed, excess tissues such as the trachea are cleared away, and the wet weight of the whole lung is measured to calculate the lung index. • (3) The upper lobe of the left lung is fixed in 4% neutral paraformaldehyde, fixed for 24 hours, paraffin-embedded and sectioned for HE staining. • (4) The remaining lung tissues are put into centrifugal tubes separately, quickly frozen in liquid nitrogen, and then stored at −80° C. after the experiment, which is used for the detection of MDA, SOD, western blotting (WB) and reverse transcription polymerase chain reaction (RT-PCR). […]
# The lung tissue is taken out from −80° C., and its weight is accurately measured. […]
# IkB-α = IkB-α mRNA in lung tissue by qRT-PCR; conditions: Gen-17 (12.5, 25, 50 mg/kg gavage) compared with LPS group (P<0.001)
# Description: as §1, §2
# [4] = low-dose Gen-17 12.5 mg/kg gavage
# [5] = Gen-17 12.5, 25, 50 mg/kg gavage, ALI mice
smiles,measurement,setting,value
"COC(=O)C1=CO[C@@H](OC)[C@@H]2C(COC(=O)c3cccc(Br)c3)=CC[C@H]12 [Gen-17, genipin beta-methyl derivative]",mRNA expression of IKKα/β in lung tissue,IKKα/β,significantly reduce the expression
same,pathological damage of lung tissue (HE staining),"LPS-induced ALI mice [1]; Gen-17 groups (12.5, 25, 50 mg/kg gavage) compared with LPS group",significantly alleviate the pathological damage
same,pathological score of lung tissue,"LPS-induced ALI mice [1]; high-dose Gen-17 50 mg/kg gavage, compared with LPS group (P<0.01)",significantly reduced
same,pathological scores of alveolitis,LPS-induced ALI mice [1]; [4],increased
same,pathological scores of alveolitis,LPS-induced ALI mice [1]; medium-dose Gen-17 25 mg/kg gavage,increased
same,total protein content in BALF,LPS-induced ALI mice [2]; high-dose Gen-17 50 mg/kg gavage,significantly reduced
same,total protein content in BALF,LPS-induced ALI mice [2]; [4],significantly reduced
same,total protein content in BALF,LPS-induced ALI mice [2]; middle-dose Gen-17 25 mg/kg gavage,significantly reduced
same,"degree of pulmonary edema (lung index), overall result",LPS-induced ALI mice [3]; [5],reduce the degree of pulmonary edema in ALI mice to varying degrees
same,lung index,"LPS-induced ALI mice [3]; Gen-17 groups (12.5, 25, 50 mg/kg gavage) compared with NS group",statistically significant (P<0.05)
same,lung index,"LPS-induced ALI mice [3]; high-dose Gen-17 50 mg/kg gavage, compared with LPS group",statistically significant (P<0.01)
same,lung index,"LPS-induced ALI mice [3]; low-dose Gen-17 12.5 mg/kg gavage, compared with DEX group (P<0.05)",increases most significantly
same,lung index,"LPS-induced ALI mice [3]; medium-dose Gen-17 25 mg/kg gavage, compared with LPS group",statistically significant (P<0.01)
same,expression of HO-1 gene in lung tissue,HO-1; Gen-17 compared with DEX group (P<0.001),statistically significant in upregulating the expression of HO-1 gene
same,expression of HO-1 gene in lung tissue,HO-1; Gen-17 group compared with NS group,significantly decreased (P<0.001)
same,"expression of Nrf2 protein in lung tissue, overall result",Nrf2; [5],upregulate the expression of Nrf2 and HO-1 protein
same,expression of Nrf2 protein in lung tissue (increase),"Nrf2; medium-dose Gen-17 25 mg/kg gavage, compared with LPS group (P<0.05)",statistically significant
same,mRNA expression of IkB-α in lung tissue,IkB-α,significantly reduce the expression
